These results are taken from PubChem BioAssay (NCI).

Among the test systems are COLO 205 colon; HOP-92 NSCLC; HT29 colon; K-562 leukemia; KM12 colon; OVCAR-3 ovarian; SF-539 CNS; SK-MEL-5 melanoma; SW-620 colon; UO-31 renal; SK-OV-3 ovarian.
Holding throughout (test): NCI-60 cell line screen, 48 h

Each structure is given as a SMILES string.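 Five concentrations, 48 hours, 96-well plates. GI50 = concentration required for 50% inhibition of growth. TGI marks complete inhibition of growth.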 A value given as a limit tells only on which side of the number the result lay.

As to `CSc1nc(Cl)c(Br)c(Sc2nc(N)nc3nc[nH]c23)n1`, the TGI in the test with COLO 205 colon worked out at 33.8 µM; with HOP-92 NSCLC, 19.2 µM; with HT29 colon, 36.8 µM; in the test with K-562 leukemia it was 13.1 µM; in the test with KM12 colon, 19 µM; in the test with OVCAR-3 ovarian, 29 µM. Moreover, the TGI was found to be 11.2 µM in the test on SF-539 CNS, 26.4 µM in the test on SK-MEL-5 melanoma, 25.3 µM with SW-620 colon and 17 µM in the test with UO-31 renal.

As to `N=C(c1ccc2ccccc2c1)c1ccccc1Cc1ccccc1`, the TGI is above 100 µM in the test with COLO 205 colon; above 100 µM in the test on HOP-92 NSCLC; above 100 µM with HT29 colon; above 100 µM with K-562 leukemia; above 100 µM in the test with KM12 colon; 57.3 µM in the test with OVCAR-3 ovarian. The TGI in the test on SF-539 CNS, in the test with SK-MEL-5 melanoma, in the test on SK-OV-3 ovarian, in the test on SW-620 colon and with UO-31 renal was above 100 µM each time.

Regarding `O=C1c2ccccc2C(=O)c2c(Nc3ccc4c5c(cccc35)C(=O)c3ccccc3-4)cccc21`, the TGI with HOP-92 NSCLC, in the test on HT29 colon, in the test with K-562 leukemia, in the test with KM12 colon, with OVCAR-3 ovarian and with SK-MEL-5 melanoma was above 100 µM in each case. Further, the TGI in the test with SW-620 colon and in the test with UO-31 renal was above 100 µM in each case.

Regarding `CCOC(=O)C12CCC(=O)C=C1[C@@H](C)C(=O)CC2` (stereo partly specified), the TGI in the test on COLO 205 colon, in the test with HOP-92 NSCLC, in the test with HT29 colon, in the test on KM12 colon, in the test with OVCAR-3 ovarian and with SK-MEL-5 melanoma was above 100 µM throughout. Further, the TGI in the test on SK-OV-3 ovarian, in the test on SW-620 colon and with UO-31 renal was above 100 µM in each case.

On to `O=C(CNc1cccc([N+](=O)[O-])c1)Nn1c(-c2ccccc2)nc2ccccc2c1=O`, for which the TGI in the test with COLO 205 colon stood at 3.17 µM; in the test with HT29 colon, 1.08 µM; with KM12 colon, 4.42 µM; in the test with OVCAR-3 ovarian, 5.15 µM; with SF-539 CNS, 4.7 µM; with SK-MEL-5 melanoma it was 2.31 µM. Also, the TGI in the test on SK-OV-3 ovarian was determined as 2.04 µM; in the test on SW-620 colon it was 2.05 µM; with UO-31 renal, 4.12 µM.

For `CC(C)(C)N1C(C(=O)c2ccccc2)C1c1ccccc1` (stereo unspecified), the TGI in the test with COLO 205 colon, in the test on HOP-92 NSCLC, in the test on HT29 colon, in the test with K-562 leukemia, in the test on KM12 colon and in the test with OVCAR-3 ovarian was above 100 µM each time. Moreover, the TGI in the test with SF-539 CNS, with SK-MEL-5 melanoma, with SK-OV-3 ovarian and with SW-620 colon was above 100 µM throughout.

Turning to `N#CN=C(N)NC(=O)/C=C/C=C/c1ccc(Cl)cc1`, the TGI in the test with COLO 205 colon, with HOP-92 NSCLC, with HT29 colon, in the test with K-562 leukemia, in the test with KM12 colon and in the test with OVCAR-3 ovarian was above 100 µM each time. Besides, the TGI is 50.4 µM in the test on SF-539 CNS; above 100 µM with SK-MEL-5 melanoma; above 100 µM with SK-OV-3 ovarian; above 100 µM in the test with SW-620 colon; above 100 µM in the test on UO-31 renal.

For `CC(C)(C)OC(=O)c1cnc(Cl)cn1`, the TGI in the test with COLO 205 colon was above 100 µM; in the test with HOP-92 NSCLC it was 18.4 µM; in the test on HT29 colon it was above 100 µM; with K-562 leukemia, above 100 µM; with KM12 colon it was above 100 µM; in the test on SF-539 CNS it was above 100 µM. Also, the TGI was above 100 µM with SK-MEL-5 melanoma, above 100 µM in the test on SK-OV-3 ovarian, above 100 µM with SW-620 colon and 18.5 µM in the test with UO-31 renal.

Take `CC(C)c1cc(CN(C)C)c(O)c(C(C)(C)C)c1`: the TGI with COLO 205 colon is 36.7 µM; with HT29 colon, above 100 µM; with KM12 colon, 46.2 µM; in the test on OVCAR-3 ovarian it was 31.2 µM; in the test on SK-MEL-5 melanoma, 29.9 µM; with SK-OV-3 ovarian, above 100 µM. The TGI in the test on SW-620 colon came out at 36.4 µM; with UO-31 renal, 58 µM.

For `O=c1ccc2nc(-c3ccccc3)nn(-c3ccccn3)c-2c1`, the GI50 was 1.25 µM with HOP-92 NSCLC; 3.2 µM in the test on HT29 colon; 25.5 µM with KM12 colon; 1.69 µM in the test with OVCAR-3 ovarian; 16.2 µM in the test with SF-539 CNS; 13.9 µM in the test with SK-MEL-5 melanoma. Besides, the GI50 in the test with SK-OV-3 ovarian is 10.3 µM; in the test on UO-31 renal, 1.45 µM. Moreover, the TGI in the test on HOP-92 NSCLC was found to be 3.31 µM; with HT29 colon, 15.1 µM; in the test with KM12 colon, 70.2 µM; with OVCAR-3 ovarian, 3.15 µM; in the test on SF-539 CNS, 30.8 µM; with SK-MEL-5 melanoma, 33.6 µM. Moreover, the TGI in the test on SK-OV-3 ovarian amounted to 25 µM; in the test with UO-31 renal, 2.81 µM.

Consider `Nc1nc(N)c2c(n1)NC(=O)c1c(c3ccccc3n1Cc1ccc(Cl)cc1)C2`, for which the TGI was 30.5 µM in the test on COLO 205 colon; 20.4 µM in the test on HOP-92 NSCLC; above 100 µM in the test on HT29 colon; above 100 µM in the test on K-562 leukemia; 56.5 µM in the test on OVCAR-3 ovarian; 44.8 µM in the test with SF-539 CNS. For the same compound, the TGI with SK-MEL-5 melanoma was 28.6 µM; with SK-OV-3 ovarian, 45.4 µM; in the test on SW-620 colon, above 100 µM; with UO-31 renal, above 100 µM.

Turning to `Nc1c2c(=O)[nH]c(=O)c2c(N)c2c(=O)c3ccccc3c(=O)c12`, the TGI in the test on COLO 205 colon is 1.85 µM; in the test on HOP-92 NSCLC it was 51.9 µM; with HT29 colon it was 2.83 µM; in the test on K-562 leukemia, above 45.9 µM; in the test with KM12 colon it was 7.56 µM; in the test with OVCAR-3 ovarian, 4.31 µM. Further, the TGI stood at 4.52 µM in the test on SF-539 CNS; 0.394 µM with SK-MEL-5 melanoma; 32.9 µM in the test with SK-OV-3 ovarian; 4.65 µM in the test with SW-620 colon; 31.1 µM in the test on UO-31 renal.

As to `CC(=O)OC(C)C1C2=C(C(=O)CC1(C)O)C(=O)c1c(ccc(-c3ccc4c(c3O)C(=O)C3=C(C4=O)C(C(C)OC(C)=O)C(C)(O)CC3=O)c1O)C2=O` (stereo unspecified), the TGI in the test with COLO 205 colon was 1.92 µM; with HOP-92 NSCLC, 3.08 µM; in the test with HT29 colon, 3.98 µM; with K-562 leukemia it was above 100 µM; in the test with KM12 colon, 10.6 µM; with OVCAR-3 ovarian, 5.29 µM. For the same compound, the TGI in the test with SF-539 CNS worked out at 3.54 µM; with SK-MEL-5 melanoma it was 8.22 µM; with SK-OV-3 ovarian, 23.6 µM; in the test on SW-620 colon, 2.1 µM; in the test with UO-31 renal, 9.16 µM.

With `C=CC[N+]12CN3CN(CN(C3)C1)C2`, the TGI in the test on COLO 205 colon is 65.9 µM; in the test on HOP-92 NSCLC, 46.9 µM; in the test with HT29 colon, 42.8 µM; in the test on K-562 leukemia, above 100 µM; in the test with KM12 colon it was 66.8 µM; in the test on OVCAR-3 ovarian, above 100 µM. In addition, the TGI in the test on SF-539 CNS is 40.6 µM; in the test on SK-MEL-5 melanoma it was above 100 µM; in the test on SK-OV-3 ovarian it was above 100 µM; in the test on SW-620 colon, above 100 µM; with UO-31 renal, 43.7 µM.

Turning to `COc1ccc(C[C@H](N)C(=O)NC2C(CO)OC(n3cnc4c(N(C)C)ncnc43)C2O)cc1` (stereo partly specified), the TGI was determined as 0.302 µM in the test on COLO 205 colon; 0.591 µM with HOP-92 NSCLC; 1.16 µM with K-562 leukemia; 1.32 µM in the test with KM12 colon; 0.847 µM in the test with SK-MEL-5 melanoma; 7.89 µM in the test with UO-31 renal.

On to `COC(=O)Nc1nc2cc(OC)c(OC)cc2c(=O)[nH]1`, for which the TGI in the test on COLO 205 colon, in the test with HT29 colon, with K-562 leukemia, in the test with KM12 colon, with OVCAR-3 ovarian and in the test on SF-539 CNS was above 100 µM throughout. Further, the TGI in the test on SK-MEL-5 melanoma, in the test with SK-OV-3 ovarian, with SW-620 colon and in the test with UO-31 renal was above 100 µM in each case.

Take `NC(=O)C(N)=O`: the TGI in the test on COLO 205 colon, in the test with HOP-92 NSCLC, in the test with K-562 leukemia, in the test on KM12 colon, with OVCAR-3 ovarian and with SF-539 CNS was above 100 µM in each case. Further, the TGI in the test with SK-MEL-5 melanoma, in the test on SK-OV-3 ovarian, in the test with SW-620 colon and with UO-31 renal was above 100 µM each time.
